Here are results for twelve compounds from patent US12590062B2, “PD-1/PD-L1 inhibitors” (Gilead Sciences, Inc., priority 2017, dated 2026).

One test concerns the target T1, PD-1/PD-L1 interaction (Homo sapiens, UniProt Q9NZQ7).
T1 construct: expressed in transfected cells; host or cells: CHO cells (aAPC-PD-L1) co-cultured with Jurkat cells overexpressing PD-1 and an NFAT-luciferase reporter
Description: PD-1/PD-L1 NFAT reporter co-culture assay. It counts as cell-based. The following applies: Jurkat PD-1 NFAT-luciferase cells co-cultured with aAPC-PD-L1 CHO cells, 6 hrs at 37° C.; read-out: EC50 NFAT Luciferase. In outline:
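First, CHO cells displaying anti-CD3 antibody and PD-L1 were plated overnight. Next, compound-treated PD-1 Jurkat NFAT-luciferase reporter cells in 2% FBS RPMI were added for 6 h at 37 °C. Finally, ONE-Glo luminescence was read and EC50 values fitted with a four-parameter equation.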

For another test, the target named is PD-1/PD-L1 (Homo sapiens, UniProt Q9NZQ7). In words: PD-1/PD-L1 biochemical protein-protein interaction assay (ALPHA). In kind it is binding. The following applies: 0.3 nM His tagged PD-L1, 2.5 nM biotinylated Fc-PD-1, 60 minutes at 25° C., read-out: IC50 PD-L1-PD-1 Alpha IC50-mono PD-L1-fcP-D1. In outline: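 Extracellular-domain binding of His-tagged PD-L1 (0.3 nM final) to biotinylated Fc-PD-1 (2.5 nM final) was measured by ALPHA in 25 mM Hepes pH 7.4, 150 mM NaCl, 3.4 mM EDTA, 0.005% Tween 20, 0.01% BSA. After 60 min at 25° C, anti-His acceptor and streptavidin donor beads were added; IC50 from four-parameter fits.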

The target of another test is T2, PD-L1 (Homo sapiens, UniProt Q9NZQ7).
T2 construct: determine if they can specifically dimerize the extracellular domains of PD-L1
Description: PD-L1/PD-L1 dimerization biochemical protein-protein interaction assay (ALPHA). In kind it is binding. As to conditions: compound-induced PD-L1 dimerization, head prints '1 nM' (0.5 nM His-tagged PD-L1 and 0.5 nM FLAG-tagged PD-L1), read-out: AC50 PDL1 Dimer Alpha 1 nM. In outline:
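ALPHA proximity assay of compound-induced dimerization of 0.5 nM His-tagged and 0.5 nM FLAG-tagged PD-L1 extracellular domains in Hepes pH 7.4 buffer, 2 h at 25 °C. Anti-His acceptor then anti-FLAG donor beads, 60 min each; AC50 from four-parameter fit.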

T2 sequence (Q9NZQ7 19-238 limits assumed): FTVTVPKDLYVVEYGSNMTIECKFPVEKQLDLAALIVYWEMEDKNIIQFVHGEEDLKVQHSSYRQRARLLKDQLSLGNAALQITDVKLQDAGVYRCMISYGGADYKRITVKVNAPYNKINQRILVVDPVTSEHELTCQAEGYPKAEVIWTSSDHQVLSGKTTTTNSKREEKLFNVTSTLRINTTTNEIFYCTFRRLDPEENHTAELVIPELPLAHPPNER
T2 sequence (Q9NZQ7 19-238 limits assumed): as above
Chain of PD-1/PD-L1 (Q9NZQ7 19-238 limits assumed): as above
T1 sequence (Q9NZQ7 19-290): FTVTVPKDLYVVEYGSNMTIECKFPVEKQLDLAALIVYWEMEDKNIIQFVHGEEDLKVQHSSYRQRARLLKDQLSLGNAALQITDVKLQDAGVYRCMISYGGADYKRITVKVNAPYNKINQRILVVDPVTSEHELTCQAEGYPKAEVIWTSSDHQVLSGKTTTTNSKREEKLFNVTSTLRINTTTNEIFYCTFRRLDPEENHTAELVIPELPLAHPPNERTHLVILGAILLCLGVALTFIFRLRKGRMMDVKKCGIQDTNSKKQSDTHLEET

Take `COc1nc(O[C@H]2CCc3c(-c4cccc5c4CC[C@@H]5Oc4nc(OCc5cncc(C#N)c5)c(CNC[C@@H](O)CC(=O)O)cc4Br)cccc32)c(Br)cc1CNC[C@@H](O)CC(=O)O` [Example 679]: the concentration giving a half-maximal response (EC50) (in general, the concentration that produces a half-maximal response) at PD-1/PD-L1 interaction came to 64 nM. For the same compound, at PD-1/PD-L1, the 50% inhibitory concentration (IC50) (commonly the concentration that inhibits the measured activity by half) came out at 0.058 nM. Moreover, on PD-L1, the AC50 (in general, the concentration giving half of the maximal activity seen) was determined as 101 nM.

Regarding `COc1nc(-c2cccc(-c3cccc4c3CC[C@@H]4Oc3nc(OCc4cncc(C#N)c4)c(CN[C@@](C)(CO)C(=O)O)cc3Cl)c2Cl)ccc1CN1CC2(C1)CN(C(=O)OC(C)(C)C)C2` [Example 682], the EC50 on PD-1/PD-L1 interaction came out at 243 nM. Besides, the IC50 on PD-1/PD-L1 stood at 0.421 nM. The AC50 on PD-L1 worked out at 194 nM.

Turning to `COc1nc(-c2cccc(-c3cccc4c3CC[C@@H]4Oc3nc(OCc4cncc(C#N)c4)c(CNC[C@@H](O)CC(=O)O)cc3Cl)c2Cl)ccc1CN1CC2(CCC(=O)N2)C1` [Example 683], on PD-1/PD-L1 interaction, the EC50 was found to be 98 nM. Also, the IC50 on PD-1/PD-L1 stood at 0.104 nM. The concentration at half-maximal activity (AC50) at PD-L1 is 116 nM.

On to `COc1nc(-c2cccc(-c3cccc4c3CC[C@@H]4Oc3nc(OCc4cncc(C#N)c4)c(CN[C@@](C)(CO)C(=O)O)cc3Cl)c2Cl)ccc1CN1CC2(CCC(=O)N2)C1` [Example 684], for which, on PD-1/PD-L1 interaction, the EC50 was found to be 36 nM. In addition, at PD-1/PD-L1, the concentration for half-maximal inhibition (IC50) was 0.064 nM. Further, on PD-L1, the AC50 turned out to be 41.2 nM.

On to `C[C@@](CO)(NCc1ccc(O[C@H]2CCc3c(-c4cccc5c4CC[C@@H]5Oc4nc(OCc5cncc(C#N)c5)c(CN[C@@](C)(CO)C(=O)O)cc4Cl)cccc32)cc1)C(=O)O` [Example 685], for which, at PD-1/PD-L1 interaction, the EC50 was found to be 625 nM. Also, on PD-1/PD-L1, the IC50 turned out to be 0.552 nM. The AC50 on PD-L1 was 1820 nM.

Consider `C[C@@](CO)(NCc1cc(Cl)c(O[C@H]2CCc3c(-c4cccc5c4CC[C@@H]5Oc4nc(OCc5cc(C#N)cc(C#N)c5)c(CN[C@@](C)(CO)C(=O)O)cc4Cl)cccc32)nc1OCc1cc(C#N)cc(C#N)c1)C(=O)O` [Example 686], for which the EC50 on PD-1/PD-L1 interaction is 46 nM. In addition, at PD-1/PD-L1, the IC50 was 0.282 nM. Also, the AC50 at PD-L1 was found to be 137 nM.

As for `C[C@@](CO)(NCc1cc(Cl)c(O[C@H]2CCc3c(-c4cccc5c4CC[C@@H]5Oc4ccc(CN5CC[C@@H](O)C5)c(OCc5cncc(S(C)(=O)=O)c5)n4)cccc32)nc1OCc1cncc(S(C)(=O)=O)c1)C(=O)O` [Example 687], the EC50 at PD-1/PD-L1 interaction is 605 nM. Besides, at PD-1/PD-L1, the IC50 was determined as 0.659 nM. For the same compound, the half-maximal activity concentration (AC50) on PD-L1 came out at 3100 nM.

Regarding `C[C@@](CO)(NCc1cc(Cl)c(O[C@H]2CCc3c(-c4cccc5c4CC[C@@H]5Oc4nc(OCc5cncc(S(C)(=O)=O)c5)c(CN5CC[C@@H](O)C5)cc4Cl)cccc32)nc1OCc1cncc(S(C)(=O)=O)c1)C(=O)O` [Example 688], the EC50 on PD-1/PD-L1 interaction was not below 50000 nM. Also, the IC50 at PD-1/PD-L1 came out at 0.412 nM. Moreover, at PD-L1, the half-maximal activity concentration (AC50) was found to be 141 nM.

As for `CS(=O)(=O)c1cncc(COc2nc(O[C@H]3CCc4c(-c5cccc6c5CC[C@@H]6Oc5nc(OCc6cncc(S(C)(=O)=O)c6)c(CN6CC[C@@H](O)C6)cc5Cl)cccc43)c(Cl)cc2CN2CC[C@@H](O)C2)c1` [Example 689], on PD-1/PD-L1 interaction, the 50% effective concentration (EC50) came out at 139 nM. For the same compound, the half-maximal inhibitory concentration (IC50) at PD-1/PD-L1 came out at 0.064 nM. At PD-L1, the AC50 was determined as 114 nM.

Consider `C[C@@](CO)(NCc1cc(Cl)c(O[C@H]2CCc3c(-c4cccc5c4CC[C@@H]5Oc4nc(OCc5cncc(S(C)(=O)=O)c5)c(CNCCO)cc4Cl)cccc32)nc1OCc1cncc(S(C)(=O)=O)c1)C(=O)O` [Example 690], for which, at PD-1/PD-L1 interaction, the EC50 came out at 287 nM. Further, the IC50 on PD-1/PD-L1 was 0.28 nM. Also, the AC50 at PD-L1 amounted to 80.8 nM.

In the case of `C[C@@](CO)(NCc1cc(Cl)c(O[C@H]2CCc3c(-c4cccc(-c5ccc6c(c5)C[C@H](N)C6)c4Cl)cccc32)nc1OCc1cncc(C#N)c1)C(=O)O` [Example 695], on PD-1/PD-L1 interaction, the 50% effective concentration (EC50) is 26 nM. Also, the half-maximal inhibitory concentration (IC50) on PD-1/PD-L1 was determined as 0.064 nM. For the same compound, at PD-L1, the AC50 is 21.6 nM.

Turning to `C[C@@](CO)(NCc1cc(Cl)c(O[C@H]2CCc3c(-c4cccc(-c5ccc6c(c5)C[C@@H](N)C6)c4Cl)cccc32)nc1OCc1cncc(C#N)c1)C(=O)O` [Example 696], on PD-1/PD-L1 interaction, the concentration giving a half-maximal response (EC50) is 12 nM. Further, on PD-1/PD-L1, the 50% inhibitory concentration (IC50) was 0.099 nM. Besides, on PD-L1, the half-maximal activity concentration (AC50) is 16.9 nM.
